From ChEMBL document CHEMBL3244210, “Experimental antiulcer drugs. 1. Indole-1-alkanamides and pyrrole-1-alkanamides” (J Med Chem, 1977)
Blank lines part the entries; values can stand above or below the molecule they belong to. Activity calls are given as the source filed them. The rule behind the calls is not given here.

How the values were obtained:
Rattus norvegicus [1] = assay: Antiulcer activity in sc dosed albino rat pyloric ligation model assessed as inhibition of gastric secretion administered as single dose 1 to 24 hrs prior to ligation; format: functional, organism-based; conditions: Stomach
Rattus norvegicus [2] = assay: Antiulcer activity in po dosed albino rat pyloric ligation model assessed as inhibition of gastric secretion administered as single dose 1 to 24 hrs prior to ligation; format: functional, organism-based; conditions: Stomach
Rattus norvegicus [3] = assay: Antiulcer activity in albino rat pyloric ligation model assessed as inhibition of total acid output at 100 mg/kg, po administered as single dose during ligation relative to control; format: functional
Rattus norvegicus [4] = assay: Antiulcer activity in albino rat pyloric ligation model assessed as inhibition of gastric volume at 100 mg/kg, po administered as single dose 1 hr prior ligation relative to control; format: functional; conditions: Stomach
Rattus norvegicus [5] = assay: Antiulcer activity in albino rat pyloric ligation model assessed as elevation of gastric pH at 50 mg/kg, po administered as single dose 1 hr prior ligation (Rvb =1.1 no_unit); format: functional, Stomach
Rattus norvegicus [6] = assay: Antiulcer activity in albino rat pyloric ligation model assessed as elevation of gastric pH at 25 mg/kg, po administered as single dose 1 hr prior ligation (Rvb =1.1 no_unit); format: functional, Stomach
Rattus norvegicus [7] = assay: Antiulcer activity in albino rat pyloric ligation model assessed as elevation of gastric pH at 100 mg/kg, po administered as single dose during prior ligation (Rvb =1.1 no_unit); format: functional, Stomach
Rattus norvegicus [8] = assay: Antiulcer activity in albino rat pyloric ligation model assessed as inhibition of total acid output at 200 mg/kg, po administered as single dose 1 hr prior ligation relative to control; format: functional
Rattus norvegicus [9] = assay: Antiulcer activity in albino rat pyloric ligation model assessed as inhibition of gastric volume at 200 mg/kg, po administered as single dose 1 hr prior ligation relative to control; format: functional; conditions: Stomach
Rattus norvegicus [10] = assay: Antiulcer activity in albino rat pyloric ligation model assessed as inhibition of total acid output at 100 mg/kg, po administered as single dose 24 hrs prior ligation relative to control; format: functional
Rattus norvegicus [11] = assay: Antiulcer activity in albino rat pyloric ligation model assessed as inhibition of gastric volume at 25 mg/kg, po administered as single dose 1 hr prior ligation relative to control; format: functional; conditions: Stomach
Rattus norvegicus [12] = assay: Antiulcer activity in albino rat pyloric ligation model assessed as inhibition of total acid output at 50 mg/kg, po administered as single dose 1 hr prior ligation relative to control; format: functional
Rattus norvegicus [13] = assay: Antiulcer activity in albino rat pyloric ligation model assessed as inhibition of total acid output at 25 mg/kg, po administered as single dose 1 hr prior ligation relative to control; format: functional
Canis familiaris [14] = assay: Antisecretory activity in beagle dog with chronic gastric fistula assessed as inhibition of histamine-induced gastric secretion at 50 mg/kg, po measured every 15 mins post histamine treatment; format: functional, organism-based; parameters: dose 50 mg/kg; conditions: Canis lupus familiaris, Stomach
Rattus norvegicus [15] = assay: Antiulcer activity in albino rat pyloric ligation model assessed as elevation of gastric pH at 100 mg/kg, po administered as single dose 1 hr prior ligation (Rvb =1.1 no_unit); format: functional, Stomach
Canis familiaris [16] = assay: Toxicity in beagle dog at 50 mg/kg, po; format: organism-based, Canis lupus familiaris; parameters: dose 50 mg/kg, route oral; conditions: in vivo
Rattus norvegicus [17] = assay: Antiulcer activity in albino rat pyloric ligation model assessed as inhibition of gastric volume at 100 mg/kg, po administered as single dose 24 hrs prior ligation relative to control; format: functional; conditions: Stomach
Rattus norvegicus [18] = assay: Antiulcer activity in albino rat pyloric ligation model assessed as inhibition of gastric volume at 100 mg/kg, po administered as single dose during ligation relative to control; format: functional; conditions: Stomach
Rattus norvegicus [19] = assay: Antiulcer activity in albino rat pyloric ligation model assessed as inhibition of gastric volume at 50 mg/kg, po administered as single dose 1 hr prior ligation relative to control; format: functional; conditions: Stomach
[20] = Toxicity in histamine-induced guinea pig assessed as change in rate of beating in right atrium at 10 ' -5 to 5 x 10' -5 M after 5 mins; format: tissue-based, Cavia porcellus, Cardiac atrium
Rattus norvegicus [21] = assay: Antiulcer activity in albino rat pyloric ligation model assessed as inhibition of total acid output at 100 mg/kg, po administered as single dose 1 hr prior ligation relative to control; format: functional
Mus musculus = assay: Anticholinergic activity in mouse assessed as mydriasis at 100 mg/kg, po measured after 1 to 24 hrs post dose; format: ADME, organism-based; parameters: dose 100 mg/kg, route oral; conditions: in vivo
Rattus norvegicus [22] = assay: Antiulcer activity in albino rat pyloric ligation model assessed as elevation of gastric pH at 100 mg/kg, po administered as single dose 24 hrs prior ligation (Rvb =1.1 no_unit); format: functional, Stomach
Rattus norvegicus [23] = assay: Antiulcer activity in albino rat pyloric ligation model assessed as elevation of gastric pH at 200 mg/kg, po administered as single dose 1 hr prior ligation (Rvb =1.1 no_unit); format: functional, Stomach
Homo sapiens [24] = organism: Homo sapiens; assay: Antagonist activity at histamine receptor (unknown origin) assessed as shift in histamine-induced response at 5 x 10 '-5 M relative to control
Homo sapiens [25] = organism: Homo sapiens; assay: Antagonist activity at histamine receptor (unknown origin) assessed as shift in histamine-induced response at 10 '-5 M relative to control
[26] = Drug excretion in rat urine administered as single dose 1 to 24 hrs prior to ligation; format: ADME; conditions: in vivo
Rattus norvegicus [27] = organism: Rattus norvegicus; assay: animal or person; conditions: Stomach, po, read-out: INH
Rattus norvegicus [28] = assay: Antiulcer activity in albino rat pyloric ligation model assessed as elevation of gastric pH at 6.25 mg/kg, po administered as single dose during prior ligation (Rvb =1.1 no_unit); format: functional, Stomach
Rattus norvegicus [29] = organism: Rattus norvegicus; assay: animal or person; conditions: po, read-out: INH

SMILES: Cc1cc2ccccc2n1CCC(N)=O
inhibition (Rattus norvegicus [1]): inactive | inhibition (Rattus norvegicus [2]): inactive

SMILES: c1ccc2[nH]ccc2c1
inhibition (Rattus norvegicus [1]): Active | inhibition (Rattus norvegicus [2]): Active

SMILES: Cc1c(C)n(CC(N)=O)c2ccccc12
inhibition in vivo at 100 mg/kg (Rattus norvegicus [3]): 52% | inhibition in vivo at 100 mg/kg (Rattus norvegicus [4]): 27% | pH (Rattus norvegicus [5]): 3 | pH (Rattus norvegicus [6]): 2.6 | pH (Rattus norvegicus [7]): 1.5 | inhibition in vivo at 200 mg/kg (Rattus norvegicus [8]): 88% | inhibition in vivo at 200 mg/kg (Rattus norvegicus [9]): 56% | inhibition (Rattus norvegicus [1]): Active | inhibition in vivo at 100 mg/kg (Rattus norvegicus [10]): 69% | inhibition in vivo at 25 mg/kg (Rattus norvegicus [11]): 26% | inhibition in vivo at 50 mg/kg (Rattus norvegicus [12]): 69% | inhibition in vivo at 25 mg/kg (Rattus norvegicus [13]): 47% | Activity (Canis familiaris [14]): Active | pH (Rattus norvegicus [15]): 6 | Activity (Canis familiaris [16]): Toxic | inhibition in vivo at 100 mg/kg (Rattus norvegicus [17]): 44% | inhibition (Rattus norvegicus [2]): Active | inhibition in vivo at 100 mg/kg (Rattus norvegicus [18]): 32% | inhibition in vivo at 50 mg/kg (Rattus norvegicus [19]): 39% | Activity [20]: Non-toxic | inhibition in vivo at 100 mg/kg (Rattus norvegicus [21]): 85% | Activity (Mus musculus): Non-toxic | pH (Rattus norvegicus [22]): 3.2 | pH (Rattus norvegicus [23]): 6.7

SMILES: Cc1c(C)c(C)n(CC(N)=O)c1C
inhibition (Rattus norvegicus [1]): inactive | inhibition (Rattus norvegicus [2]): inactive | Activity [20]: Non-toxic | Activity (Mus musculus): Non-toxic

SMILES: Cc1ccc(C)n1CC(N)=O
inhibition (Rattus norvegicus [1]): inactive | inhibition (Rattus norvegicus [2]): inactive

SMILES: CCc1c(C)c2ccccc2n1CC(N)=O
inhibition (Rattus norvegicus [1]): inactive | inhibition (Rattus norvegicus [2]): inactive

SMILES: Cc1c(CO)c2ccccc2n1CCC(N)=O
inhibition (Rattus norvegicus [1]): Active | inhibition (Rattus norvegicus [2]): inactive

SMILES: Cc1c(CO)c2ccccc2n1CC(N)=O
inhibition (Rattus norvegicus [1]): Active | inhibition (Rattus norvegicus [2]): inactive

SMILES: Cc1cc2ccccc2n1C
inhibition (Rattus norvegicus [1]): inactive | inhibition (Rattus norvegicus [2]): inactive

SMILES: CCc1c(C)c2ccccc2n1CCC(N)=O
inhibition (Rattus norvegicus [1]): inactive | inhibition (Rattus norvegicus [2]): inactive

SMILES: Cc1c(C)n(CCC(N)=O)c2ccccc12
inhibition (Rattus norvegicus [1]): Active | inhibition (Rattus norvegicus [2]): Active

fold change (FC) (Homo sapiens [24]): 38 | fold change (FC) (Homo sapiens [25]): 11
SMILES: CNC(=S)NCCSCc1[nH]cnc1C

Drug excretion [26]: metabolite_detected
SMILES: Cc1[nH]c2ccccc2c1C
inhibition (Rattus norvegicus [1]): Active | inhibition (Rattus norvegicus [2]): Active | Activity [20]: Non-toxic | Activity (Mus musculus): Non-toxic

SMILES: Cc1c(C)n(CCCC(N)=O)c2ccccc12
inhibition (Rattus norvegicus [1]): Active | inhibition (Rattus norvegicus [2]): Active

SMILES: CCc1c(C)n(CCC(N)=O)c2ccccc12
inhibition (Rattus norvegicus [1]): inactive | inhibition (Rattus norvegicus [2]): inactive

SMILES: CCc1c(C)n(CC(N)=O)c2ccccc12
inhibition (Rattus norvegicus [1]): inactive | inhibition (Rattus norvegicus [2]): inactive

SMILES: Cc1c(CO)n(CCC(N)=O)c2ccccc12
inhibition (Rattus norvegicus [1]): inactive | inhibition (Rattus norvegicus [2]): inactive

SMILES: CN1[C@@H]2CC[C@H]1CC(OC(=O)[C@H](CO)c1ccccc1)C2 (stereo partly drawn) [ENDO-ATROPINE]
inhibition in vivo at 6.25 mg/kg (Rattus norvegicus [27]): 43% | pH (Rattus norvegicus [28]): 1.5 | inhibition in vivo at 6.25 mg/kg (Rattus norvegicus [29]): 58%

SMILES: Cc1cn(CC(N)=O)c2ccccc12
inhibition (Rattus norvegicus [1]): inactive | inhibition (Rattus norvegicus [2]): inactive

SMILES: Cc1cc2ccccc2[nH]1
inhibition (Rattus norvegicus [1]): Active | inhibition (Rattus norvegicus [2]): Active

SMILES: Cc1ccc(C)n1CCC(N)=O
inhibition (Rattus norvegicus [1]): inactive | inhibition (Rattus norvegicus [2]): inactive

SMILES: Cc1cc2ccccc2n1CC(N)=O
inhibition (Rattus norvegicus [1]): inactive | inhibition (Rattus norvegicus [2]): inactive

SMILES: Cc1c(C)c(C)n(CCC(N)=O)c1C
inhibition (Rattus norvegicus [1]): inactive | inhibition (Rattus norvegicus [2]): inactive

SMILES: Cc1c[nH]c2ccccc12
inhibition (Rattus norvegicus [1]): Active | inhibition (Rattus norvegicus [2]): Active

SMILES: Cc1c(CO)c2ccccc2n1CCCC(N)=O
inhibition (Rattus norvegicus [1]): inactive | inhibition (Rattus norvegicus [2]): inactive

SMILES: CN/C(=N\CCSCc1nc[nH]c1C)NC#N [CIMETIDINE]
inhibition in vivo at 100 mg/kg (Rattus norvegicus [4]): 14% | pH (Rattus norvegicus [15]): 2.1 | inhibition in vivo at 100 mg/kg (Rattus norvegicus [21]): 37%

SMILES: NC(=O)Cn1ccc2ccccc21
inhibition (Rattus norvegicus [1]): inactive | inhibition (Rattus norvegicus [2]): inactive

SMILES: Cc1cn(CCC(N)=O)c2ccccc12
inhibition (Rattus norvegicus [1]): inactive | inhibition (Rattus norvegicus [2]): inactive
